Test results as given in ChEMBL document CHEMBL5052841, “Usp19 inhibitors for use in therapy” (2020).

These compounds were tested against T1, Ubiquitin carboxyl-terminal hydrolase 19 (Homo sapiens, UniProt O94966) (assay: Inhibition of C-terminal His6-tagged recombinant human USP19 using iso-peptide ubiquitin-Lys-TAMRA as substrate incubated for 30 mins and measured after 90 mins by fluorescent polarization assay).
T1 sequence (O94966 whole entry): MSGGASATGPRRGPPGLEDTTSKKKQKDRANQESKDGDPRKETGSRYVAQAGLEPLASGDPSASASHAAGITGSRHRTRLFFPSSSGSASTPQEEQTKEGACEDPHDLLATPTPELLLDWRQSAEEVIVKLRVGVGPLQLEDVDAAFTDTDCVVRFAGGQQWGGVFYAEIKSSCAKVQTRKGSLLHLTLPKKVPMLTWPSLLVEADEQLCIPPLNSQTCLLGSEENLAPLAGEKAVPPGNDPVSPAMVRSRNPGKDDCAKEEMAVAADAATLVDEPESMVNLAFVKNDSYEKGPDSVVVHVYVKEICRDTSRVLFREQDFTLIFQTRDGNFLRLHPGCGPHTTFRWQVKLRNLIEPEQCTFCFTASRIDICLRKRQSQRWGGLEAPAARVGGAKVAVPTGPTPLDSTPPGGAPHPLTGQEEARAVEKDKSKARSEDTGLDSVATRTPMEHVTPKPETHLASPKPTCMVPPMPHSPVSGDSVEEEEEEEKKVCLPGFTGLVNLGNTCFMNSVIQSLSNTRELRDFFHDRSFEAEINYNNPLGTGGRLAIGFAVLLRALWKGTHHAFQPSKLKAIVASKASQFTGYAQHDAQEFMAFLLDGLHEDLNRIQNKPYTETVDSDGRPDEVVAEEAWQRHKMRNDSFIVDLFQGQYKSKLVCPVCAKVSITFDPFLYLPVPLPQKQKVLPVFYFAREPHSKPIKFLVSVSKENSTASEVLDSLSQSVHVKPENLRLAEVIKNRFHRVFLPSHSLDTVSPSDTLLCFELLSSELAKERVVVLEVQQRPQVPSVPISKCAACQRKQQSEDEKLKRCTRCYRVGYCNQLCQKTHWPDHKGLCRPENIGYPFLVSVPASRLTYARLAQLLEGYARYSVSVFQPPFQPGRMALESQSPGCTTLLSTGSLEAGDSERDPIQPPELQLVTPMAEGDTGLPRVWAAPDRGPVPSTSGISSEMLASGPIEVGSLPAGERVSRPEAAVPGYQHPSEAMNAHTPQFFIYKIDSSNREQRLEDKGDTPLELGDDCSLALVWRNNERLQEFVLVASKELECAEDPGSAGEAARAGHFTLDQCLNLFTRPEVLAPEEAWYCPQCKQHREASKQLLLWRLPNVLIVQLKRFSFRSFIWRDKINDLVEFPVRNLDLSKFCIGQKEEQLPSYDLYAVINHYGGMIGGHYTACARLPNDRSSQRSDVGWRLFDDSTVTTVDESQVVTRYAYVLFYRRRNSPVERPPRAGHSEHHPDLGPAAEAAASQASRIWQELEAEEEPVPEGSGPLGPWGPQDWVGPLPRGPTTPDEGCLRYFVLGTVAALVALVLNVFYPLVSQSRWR

Compound | IC50 [nM]
O=C(C1CNCC1c1ccccc1)N1CC[C@@](O)(Cn2cnc(-c3ccccc3)cc2=O)C2(CCCC2)C1 (stereo not given in full) | < 500
O=C([C@@H]1CCNC[C@H]1c1ccccc1)N1CCC(O)(Cn2cnc(-c3ccccc3)cc2=O)C2(CCCC2)C1 (stereo not given in full) | < 500
O=C(c1cn(C[C@]2(O)CCN(C(=O)[C@H](CO)CC(F)(F)F)CC23CCCC3)c(=O)cc1-c1ccccc1)N1CCNCC1 | < 500
C[C@H](CC1CCCCC1)C(=O)N1CCC(O)(Cn2cnc(-c3ccccc3)cc2=O)C(C)(C)C1 (stereo not given in full) | < 500
C[C@H](CC1CCCCC1)C(=O)N1CCC(O)(Cn2cc(C(=O)N(C)C)c(-c3cccc(CO)c3)cc2=O)C2(CCCC2)C1 (stereo not given in full) | < 500
C[C@H](CC1CCCCC1)C(=O)N1CCC(O)(Cn2cnc(-c3ccccc3F)cc2=O)C2(CCCC2)C1 (stereo not given in full) | < 500
C[C@H](CC1CCCCC1)C(=O)N1CCC(O)(Cn2cc(C(=O)N3CCN(C)CC3)c(-c3ccccc3)cc2=O)C(C)(C)C1 (stereo not given in full) | < 500
C[C@H](CC1CCCCC1)C(=O)N1CC[C@@](O)(Cn2cc(C(=O)N3CCC(O)CC3)c(-c3ccccc3)cc2=O)C(C)(C)C1 | < 500
C[C@H](CC1CCCCC1)C(=O)N1CCC(O)(Cn2cnc(-c3ccsc3)cc2=O)C(C)(C)C1 (stereo not given in full) | < 500
C[C@H](CC1CCCCC1)C(=O)N1CCC(O)(Cn2cnc(-c3ccc(CO)cc3)cc2=O)C(C)(C)C1 (stereo not given in full) | < 500
CC(C)N(C)C(=O)c1cn(C[C@]2(O)CCN(C(=O)[C@H](C)CC3CCCCC3)CC2(C)C)c(=O)cc1-c1ccccc1 | < 500
CC(C)CC(C)C(=O)N1CCC(O)(Cn2cc(C(=O)N(C)C)c(-c3ccccc3)cc2=O)C2(CCCC2)C1 (stereo not given) | < 500
C[C@H](CC1CCCCC1)C(=O)N1CCC(O)(Cn2cnc(-c3cccc(CO)c3)cc2=O)C(C)(C)C1 (stereo not given in full) | < 500
CN(C)C(=O)c1cn(C[C@]2(O)CCN(C(=O)[C@H](CO)CC3CCC3)CC2(C)C)c(=O)cc1-c1ccccc1 | < 500
C[C@H](CC1CCCCC1)C(=O)N1CC[C@@](O)(Cn2cc(C(=O)N(C)C)c(-c3ccccc3)cc2=O)C(C)(C)C1 | < 500
C[C@H](CC1CC1)C(=O)N1CCC(O)(Cn2cc(C(=O)N(C)C)c(-c3ccccc3)cc2=O)C2(CCCC2)C1 (stereo not given in full) | < 500
C[C@H](CC(C)(F)F)C(=O)N1CC[C@@](O)(Cn2cnc(-c3ccccc3)cc2=O)C2(CCCC2)C1 | < 500
CN(C)C(=O)c1cn(CC2(O)CCN(C(=O)c3c[nH]nc3-c3ccccc3)CC23CCCC3)c(=O)cc1-c1ccccc1 (stereo not given) | ≤ 5000
C[C@H](CC1CCCCC1)C(=O)N1CCC(O)(Cn2cnc(-c3ccccc3CN)cc2=O)C(C)(C)C1 (stereo not given in full) | < 500
O=C(CCc1ccccc1)N1CCC(O)(Cn2cnc(-c3ccccc3F)cc2=O)CC1 | ≥ 50000
C[C@H](CC1CCCCC1)C(=O)N1CCC(O)(Cn2cc(C(=O)N3CCNCC3)c(-c3ccccc3)cc2=O)C2(CCCCC2)C1 (stereo not given in full) | < 500
CC(Cc1ccccc1)C(=O)N1CCC(O)(Cn2cnc(-c3ccccc3F)cc2=O)CC1 (racemic) | ≥ 5000
CN(C)C(=O)c1cn(C[C@]2(O)CCN(C(=O)[C@H](CCO)CC3CCCCC3)CC2(C)C)c(=O)cc1-c1ccccc1 | < 500
C[C@H](CC1CCCCC1)C(=O)N1CCC(O)(Cn2cc(C(=O)N(C)C)c(-c3ccc(CO)cc3)cc2=O)C2(CCCC2)C1 (stereo not given in full) | < 500
CC(=O)N1CCN(C(=O)c2cn(CC3(O)CCN(C(=O)[C@H](C)CC4CCCCC4)CC3(C)C)c(=O)cc2-c2ccccc2)CC1 (stereo not given in full) | < 500
C[C@H](CC1CCCCC1)C(=O)N1CC[C@@](O)(Cn2cc(C(=O)O)c(-c3ccccc3)cc2=O)C2(CCCC2)C1 | < 500
O=C(CCC1CCCC1)N1CCC(O)(Cn2cnc(-c3ccccc3F)cc2=O)CC1 | ≥ 50000
C[C@H](CC1CCC1)C(=O)N1CC[C@@](O)(Cn2cc(C(=O)N(C)C)c(-c3ccccc3)cc2=O)C2(CCCC2)C1 | < 500
CN(C)C(=O)c1cn(CC2(O)CCN(C(=O)[C@@H]3C[C@@H]3c3ccccc3)CC23CCCC3)c(=O)cc1-c1ccccc1 (stereo not given in full) | < 500
C[C@H](CC1CCCCC1)C(=O)N1CC[C@@](O)(Cn2cc(C(=O)N3CCNCC3)c(-c3ccccc3F)cc2=O)C2(CCCC2)C1 | < 500
